The record followed here is publication PMC12627232 (MedComm, 2025).

The target in data set [1] is T1, HDAC1 (Homo sapiens, UniProt Q13547).
T1 construct: purchased BPS BIOSCIENCE INC 50051
Kind of data set: HDACs enzymatic assay HDAC1. Type of data set: biochemical. How it is done: (§1) HDACs enzymatic assays were conducted according to our previous work. […] Substrates (Boc‐Lys(acetyl)‐AMC for HeLa nuclear extract, Ac‐Leu‐Gly‐Lys (Tfa)‐AMC for HDAC4, HDAC5, HDAC6, HDAC7, HDAC9, HDAC10, and HDAC11, Boc‐Lys(triflouroacetyl)‐AMC for HDAC8 and Ac‐Leu‐Gly‐Lys(acetyl)‐AMC for HDAC1, HDAC2, HDAC3) were added to the mixture. The blank group was set to no enzyme or drug but contains substrates and the control group was set to no drug but contains substrates and enzymes to each 96‐well plate. After 30 min of incubation at 37°C, the mixture was terminated with 1 mg/mL trypsin and 3 µM TSA. After another 30 min, the fluorescence intensity was measured using a Varioskan plate reader at 360/460 nm. […] The inhibition curves and IC50 values were simulated and calculated using the log(inhibitor) versus response (three parameters) mode in GraphPad Prism software.

Data set [2] addresses T2, HDAC4 (Homo sapiens, UniProt P56524).
T2 construct: purchased BPS BIOSCIENCE Inc 50004
Kind of data set: HDACs enzymatic assay HDAC4. It counts as biochemical. The following applies: Class IIa. The protocol: as §1

For data set [3], the target named is T3, HDAC9 (Homo sapiens, UniProt Q9UKV0).
T3 construct: purchased BPS BIOSCIENCE Inc 50009
Nature of the data set: HDACs enzymatic assay HDAC9. It counts as biochemical. The following applies: Class IIa. How it is done: as §1

For data set [4], the target named is T4, HDAC10 (Homo sapiens, UniProt Q969S8).
T4 construct: purchased BPS BIOSCIENCE Inc 50010
Nature of the data set: HDACs enzymatic assay HDAC10. It counts as biochemical. The following applies: Class IIb. The protocol: as §1

Data set [5] can be described thus: In vivo pharmacokinetic study. As to conditions: Sprague-Dawley, rat, plasma, male SD rats. How it is done: The compound was prepared in a 1 mg/mL working solution using DMSO/solutol/saline. SD rats (6–8 weeks old, 180–200 g, male) were purchased from Beijing HFK Bioscience Co., Ltd. (Beijing, China) and fed in accordance with the guidelines for the care and use of laboratory animals of the ethical committee of Shandong University. The doses were 2.5 mg/kg (i.v.) and 10 mg/kg (i.g.), with three animals per treatment group. Blood samples were collected from the jugular vein at different time points using heparin sodium anticoagulation tubes. After anesthetizing rats with ether, blood samples were placed in an ice water mixture for 15 min, then centrifuged at 3000×g for 3 min to separate the plasma, and stored at −20°C. The LC–MS/MS was used to detect the concentration of the analyte at each time point, and the pharmacokinetic parameters were calculated using WinNolin8.2 software.

The subject of data set [6] is MDA-MB-231 cells. Nature of the data set: Western blotting (immunoblotting). As to conditions: 24 h. Type of data set: cell-based, human. From the text: Anti‐H3 (#13998), anticleaved Caspase‐3 (#9661) and anti‐PARP (#9542) antibody was purchased from Cell Signal Technology (CST). Anti‐Caspase‐3 (T40044) was brought from Abmart. Antitubulin antibody (ab179484) was obtained from Abcam PLC. Anti‐Bcl‐2 (F0125) and anti‐Bax (F0037) antibody were purchased from Selleck Chemicals. Anti‐GAPDH antibody (AF1186) was obtained from Beyotime Inc. The protocol of Western blotting was the same as our previous works. In brief, 2.5 × 10^5 MDA‐MB‐231 cells were treated with different drugs or DMSO (equal volume to experimental groups) for 24 h and lysed with modified RIPA buffer. The cell lysates were added to loading buffer (Beyotime #P0015L) and heated in boiling water for 5 mins and then, together with biomarker (Epizymebiotech; 15–250 kDa), were electrophoresed in SDS‐PAGE gels under 80 V voltage until the biomarker reached the end of gels. Next, SDS‐PAGE gels and PVDF membrane were clipped together to perform transmembrane procedure under 350 mA currency for 1 h. Then after incubation with 5% skim milk, TBST, primary antibody and secondary antibody, the PVDF membrane was treated with ECL chemiluminescence solution (Boster Biological Technology #AR1174) and imaged by the imager (Imager 680 Amersham Imager).
(In general: Immunoblotting shows a protein as a band on a membrane.)

In data set [7] the test system is MDA-MB-231 cells. Kind of data set: Immunofluorescence of ac-H3. It counts as cell-based, human. As to conditions: 1 µM, 24 h. The protocol:
Cells (10^5 cells per plate) were seeded in confocal dishes and incubated with drugs or DMSO (equal volume to experimental groups) for 24 h. The medium was removed, and cells were fixed with 4% polyoxymethylene solution for 30 min. The cells were treated with 0.2% Triton X‐100 for 10 min and 1% BSA for 1 h at room temperature. After that, cells were washed twice with TBST and incubated with anti‐H3 antibody (Cell Signal Technology; #13998) at 4°C overnight. When incubation finished, cells were washed five times with TBST and Cy3‐labeled goat anti‐rabbit IgG (Beyotime; #A0516) and DAPI solution (Solarbio) were added. After 1 h incubation and washing five times with TBST, cells were captured with Leica TCS SP8 super‐resolution laser scanning confocal microscope. The colocalization of ac‐H3 and DAPI was analyzed with ImageJ.

Data set [8] concerns MDA-MB-231 cells. Nature of the data set: PD-L1 expression by flow cytometry. Type of data set: cell-based, human. How it is done:
MDA‐MB‐231 cells in logarithmic growth phase were inoculated into six‐well plates with a cell density of 3 × 10^4 cells per well. After incubated at 37°C for 24 h, the original medium was abandoned and 900 µL complete medium was added, in which HitransG P infection solution was added. The virus dosage was calculated according to the formula and added to the cell. Virus volume = cell number × MOI value/virus titer. After incubated in the incubator at 37°C for 16 h, replace fresh complete medium. After that, the medium changed every 24 h. 48 h after infection, the cells were treated with or without compound at a concentration of 1 µM. After 48 h of culture, the fluorescence expression was observed under microscope, and the silencing effect of shHDAC1 was detected by Western Blot. The antibodies HDAC1 (Abmart; #T55154) and GAPDH (Beyotime; #AF2819) were used. The HDAC1‐siRNA lentivirus (shHDAC1) and negative control lentivirus (shCtrl) were obtained from Shanghai GeneChem Co., Ltd. (Shanghai, China).
Next, cells were digested into single‐cell suspension with trypsin, collected in a flow tube and washed with precooled 1 × PBS. Mouse serum was added to cells for 30 min at room temperature to block cells. Then the cells were incubated with anti‐human‐PD‐L1 (BioLegend; #329732) at 4°C for 1 h, and flow cytometry was performed with FACS Celesta (BD Biosciences, USA). […]
Background: A flow cytometer gives signals particle by particle.

T1 sequence (Q13547 whole entry): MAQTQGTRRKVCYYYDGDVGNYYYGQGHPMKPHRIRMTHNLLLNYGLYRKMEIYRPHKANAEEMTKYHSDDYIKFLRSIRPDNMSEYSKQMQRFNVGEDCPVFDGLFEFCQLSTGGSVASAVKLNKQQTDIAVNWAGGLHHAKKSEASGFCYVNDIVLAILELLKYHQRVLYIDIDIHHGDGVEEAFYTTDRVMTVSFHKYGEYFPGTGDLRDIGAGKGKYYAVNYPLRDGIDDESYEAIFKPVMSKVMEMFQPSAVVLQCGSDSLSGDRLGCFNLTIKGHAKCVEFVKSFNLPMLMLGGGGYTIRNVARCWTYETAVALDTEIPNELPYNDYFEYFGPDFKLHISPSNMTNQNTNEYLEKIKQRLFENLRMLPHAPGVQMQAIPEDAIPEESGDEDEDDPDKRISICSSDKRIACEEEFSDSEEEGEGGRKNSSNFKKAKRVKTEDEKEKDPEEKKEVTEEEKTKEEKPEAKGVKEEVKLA
T2 sequence (P56524 whole entry): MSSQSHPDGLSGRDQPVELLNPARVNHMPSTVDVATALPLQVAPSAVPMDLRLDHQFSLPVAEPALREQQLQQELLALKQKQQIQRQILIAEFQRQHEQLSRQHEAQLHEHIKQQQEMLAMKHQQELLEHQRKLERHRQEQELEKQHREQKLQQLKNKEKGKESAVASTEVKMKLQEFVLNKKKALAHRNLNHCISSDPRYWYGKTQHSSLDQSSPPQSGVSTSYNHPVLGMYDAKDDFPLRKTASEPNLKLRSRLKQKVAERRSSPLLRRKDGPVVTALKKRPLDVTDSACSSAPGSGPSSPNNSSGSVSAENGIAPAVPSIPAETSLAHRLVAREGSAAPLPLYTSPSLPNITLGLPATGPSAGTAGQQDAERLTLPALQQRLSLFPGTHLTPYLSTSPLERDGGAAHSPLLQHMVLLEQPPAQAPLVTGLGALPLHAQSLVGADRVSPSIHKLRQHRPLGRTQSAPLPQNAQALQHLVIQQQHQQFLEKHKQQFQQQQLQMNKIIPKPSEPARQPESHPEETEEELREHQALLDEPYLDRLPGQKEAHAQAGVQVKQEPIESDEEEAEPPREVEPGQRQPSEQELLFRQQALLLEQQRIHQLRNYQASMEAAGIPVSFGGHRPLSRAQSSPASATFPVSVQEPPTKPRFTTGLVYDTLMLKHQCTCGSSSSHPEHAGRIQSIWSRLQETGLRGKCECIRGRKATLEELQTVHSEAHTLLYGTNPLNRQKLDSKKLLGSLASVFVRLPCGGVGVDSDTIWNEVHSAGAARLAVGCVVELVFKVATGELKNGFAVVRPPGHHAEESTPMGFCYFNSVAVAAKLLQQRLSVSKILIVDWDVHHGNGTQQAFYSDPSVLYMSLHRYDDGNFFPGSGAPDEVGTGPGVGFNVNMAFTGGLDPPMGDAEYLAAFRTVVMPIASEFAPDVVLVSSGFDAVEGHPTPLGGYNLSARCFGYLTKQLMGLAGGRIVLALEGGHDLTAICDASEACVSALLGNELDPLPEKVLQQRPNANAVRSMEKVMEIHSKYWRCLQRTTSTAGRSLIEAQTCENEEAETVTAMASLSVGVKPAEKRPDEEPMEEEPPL
T4 sequence (Q969S8 whole entry): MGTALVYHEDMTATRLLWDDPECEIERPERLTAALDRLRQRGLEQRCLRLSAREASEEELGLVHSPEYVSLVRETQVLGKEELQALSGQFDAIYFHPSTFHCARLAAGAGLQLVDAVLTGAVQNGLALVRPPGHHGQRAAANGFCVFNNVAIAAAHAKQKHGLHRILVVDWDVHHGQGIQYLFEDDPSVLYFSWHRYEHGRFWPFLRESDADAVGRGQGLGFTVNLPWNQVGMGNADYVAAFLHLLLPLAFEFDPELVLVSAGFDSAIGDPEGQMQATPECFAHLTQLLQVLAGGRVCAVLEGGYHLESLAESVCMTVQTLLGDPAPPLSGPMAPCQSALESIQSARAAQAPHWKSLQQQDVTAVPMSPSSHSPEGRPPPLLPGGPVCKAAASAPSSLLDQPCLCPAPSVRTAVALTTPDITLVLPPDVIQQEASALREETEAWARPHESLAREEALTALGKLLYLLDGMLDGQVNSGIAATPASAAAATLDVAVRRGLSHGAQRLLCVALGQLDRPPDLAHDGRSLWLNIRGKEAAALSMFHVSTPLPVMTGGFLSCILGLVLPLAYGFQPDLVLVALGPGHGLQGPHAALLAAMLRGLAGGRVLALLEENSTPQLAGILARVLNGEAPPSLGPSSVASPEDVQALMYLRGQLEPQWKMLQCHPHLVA
T3 sequence (Q9UKV0 whole entry): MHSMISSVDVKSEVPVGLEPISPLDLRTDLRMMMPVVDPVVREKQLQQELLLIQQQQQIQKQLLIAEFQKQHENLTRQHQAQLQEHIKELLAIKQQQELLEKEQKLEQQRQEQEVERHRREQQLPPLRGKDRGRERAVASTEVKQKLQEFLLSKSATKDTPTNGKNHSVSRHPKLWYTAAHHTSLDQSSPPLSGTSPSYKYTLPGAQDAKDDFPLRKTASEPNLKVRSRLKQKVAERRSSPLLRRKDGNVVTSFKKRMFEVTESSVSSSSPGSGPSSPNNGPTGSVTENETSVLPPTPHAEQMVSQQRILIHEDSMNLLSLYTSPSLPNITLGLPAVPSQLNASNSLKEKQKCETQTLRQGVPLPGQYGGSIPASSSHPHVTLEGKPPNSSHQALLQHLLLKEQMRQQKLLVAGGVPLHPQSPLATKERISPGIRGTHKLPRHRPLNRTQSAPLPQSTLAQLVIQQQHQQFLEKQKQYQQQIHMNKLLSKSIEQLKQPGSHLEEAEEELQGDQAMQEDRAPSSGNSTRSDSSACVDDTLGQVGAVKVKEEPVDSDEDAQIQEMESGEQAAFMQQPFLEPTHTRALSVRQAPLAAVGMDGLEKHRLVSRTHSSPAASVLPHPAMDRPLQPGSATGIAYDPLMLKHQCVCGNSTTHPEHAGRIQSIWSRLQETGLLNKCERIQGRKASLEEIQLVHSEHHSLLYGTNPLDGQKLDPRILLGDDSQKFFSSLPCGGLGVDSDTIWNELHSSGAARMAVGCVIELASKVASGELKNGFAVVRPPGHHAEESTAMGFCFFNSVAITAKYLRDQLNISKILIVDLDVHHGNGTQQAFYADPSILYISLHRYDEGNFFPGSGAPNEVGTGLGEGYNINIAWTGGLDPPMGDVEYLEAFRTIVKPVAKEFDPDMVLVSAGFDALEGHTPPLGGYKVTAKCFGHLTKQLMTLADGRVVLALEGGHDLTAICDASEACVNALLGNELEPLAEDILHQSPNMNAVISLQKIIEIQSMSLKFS

As usually defined, the IC50 is the concentration that inhibits the measured activity by half. What is called AUC(0-inf) is the area under the concentration-time curve extrapolated to infinity. Read a high AUC(0-inf) as high exposure. A word on the AUC(0-t): it is exposure summed from dosing to a finite time, without extrapolation to infinity. The low end stands for less exposure, the high end for more exposure. In general, Cmax refers to the peak of the concentration-time curve. The term Tmax denotes the time from dosing to the highest level. In general, half-life refers to how long it takes for the measured level to halve. High values mean slow decline, low ones rapid decline. The bioavailability is the share of a dose that reaches the circulation, judged against a reference dose that is usually intravenous. Regarding `O=C(CCCCCCNC(=O)c1cc(OCCc2ccccc2)c2ccccc2n1)NO` [SDFZ-8], in data set [1] (Class I, mean ± SD of three), it took 0.0004 ± 0.0001 µM to reach half-maximal inhibition (IC50). In addition, the “HDAC1 potency superior to SAHA” value in data set [1] (versus SAHA) is listed as 92 fold. The same compound displayed an IC50 in data set [2] greater than 10 µM. Further, in data set [3], the IC50 was greater than 10 µM. Besides, the IC50 in data set [4] was greater than 10 µM. For the same compound, in data set [5] (iv, i.v. 2.5 mg/kg), the AUC(0-inf) was determined as 3120 ± 242 ng·h/mL, the AUC(0-t) stood at 2730 ± 260 ng·h/mL, the Cmax amounted to 1750 ± 498 ng/mL and the Tmax was found to be 0.08 ± 0.01 h. In data set [5] (iv, i.v. 2.5 mg/kg), this compound gave a half-life of 2.29 ± 1.24 h. The bioavailability in data set [5] (oral, i.g. 10 mg/kg vs i.v. 2.5 mg/kg, read-out: F% (oral bioavailability)) stood at 26.1%. Further, in data set [5] (po, i.g. 10 mg/kg), the AUC(0-inf) was determined as 3260 ± 663 ng·h/mL, the exposure AUC(0-t) was determined as 3080 ± 206 ng·h/mL, the Cmax came to 659 ± 63.1 ng/mL and the Tmax is 0.33 ± 0.14 h. The same compound showed a half-life in data set [5] (po, i.g. 10 mg/kg) of 5.74 ± 1.51 h. In data set [6], the “antiapoptotic protein Bcl-2 expression” value is “downregulating”; the “levels of cleaved caspase-3 and cleaved PARP” value is recorded as “increase”; the “proapoptotic protein Bax expression” value is “upregulated”. Moreover, in data set [6] (western blotting), the “level of acetylated histone H3 (Ac-H3)” value is on record as “upregulation” and the “level of acetylated tubulin (Ac-tubulin)” value was “upregulation”. The “immunofluorescence intensities of ac-H3” value in data set [7] is listed as “notably stronger than those of cells treated with SAHA”. The PD-L1 expression entry in data set [8] is given as “increase”.
